Biological target: Vps34 enzyme (Homo sapiens (Human), UniProt Q8NEB9)
Experiment: Vps34 biochemical assay (Adapta kinase assay)
Settings: 20 μM ATP and 200 μM PI:PS in substrate mix, 1 h at room temperature, read-out: Median IC50 uM Adapta
Procedure: Dilution series of compounds of the invention were prepared in DMSO at 100 times the final assay concentration (n1=n0/3 in 10 points). The compounds were further diluted to 4 times the assay concentration in assay buffer (Life technologies buffer Q, PV5125, diluted 5 times supplemented with 2 mM DTT and 2 mM MnCl2). 2.5 μl of the diluted compounds were added to a 384 well assay plate followed by 2.5 μl of 16.5 nM Vps34 enzyme (Life technologies, PV5126). Enzyme and compounds were pre-incubated at rt for 15 min. Then 5 μl of substrate mix containing 20 μM ATP (Life technologies, PV3227) and 200 μM PI:PS substrate (Life technologies, PV5122) in assay buffer was added to the wells containing compound and enzyme. Mixing was performed by pipetting several times. The reaction was incubated at room temperature for 1 h. Then 5 μl stop-detection mix, prepared as described in the Adapta kinase assay kit instructions (Life technologies, PV5099) containing Adapta Eu-anti-ADP antibody (2.3 nM), Alexa Fluor 647 ADP tracer (9 nM) and EDTA (30 mM) in TR-FRET buffer, was added to quench the reaction. Mixing was performed by pipetting several times. The assay plate was then incubated at room temperature for 30 min and read with Artemis micro plate reader. Percent inhibition of the compounds as compared to DMSO treated control samples was calculated. By the use of Dotmatics software compound concentration versus percent inhibition was fitted to generate IC50 values.

Chain of Vps34 enzyme (Q8NEB9 whole entry): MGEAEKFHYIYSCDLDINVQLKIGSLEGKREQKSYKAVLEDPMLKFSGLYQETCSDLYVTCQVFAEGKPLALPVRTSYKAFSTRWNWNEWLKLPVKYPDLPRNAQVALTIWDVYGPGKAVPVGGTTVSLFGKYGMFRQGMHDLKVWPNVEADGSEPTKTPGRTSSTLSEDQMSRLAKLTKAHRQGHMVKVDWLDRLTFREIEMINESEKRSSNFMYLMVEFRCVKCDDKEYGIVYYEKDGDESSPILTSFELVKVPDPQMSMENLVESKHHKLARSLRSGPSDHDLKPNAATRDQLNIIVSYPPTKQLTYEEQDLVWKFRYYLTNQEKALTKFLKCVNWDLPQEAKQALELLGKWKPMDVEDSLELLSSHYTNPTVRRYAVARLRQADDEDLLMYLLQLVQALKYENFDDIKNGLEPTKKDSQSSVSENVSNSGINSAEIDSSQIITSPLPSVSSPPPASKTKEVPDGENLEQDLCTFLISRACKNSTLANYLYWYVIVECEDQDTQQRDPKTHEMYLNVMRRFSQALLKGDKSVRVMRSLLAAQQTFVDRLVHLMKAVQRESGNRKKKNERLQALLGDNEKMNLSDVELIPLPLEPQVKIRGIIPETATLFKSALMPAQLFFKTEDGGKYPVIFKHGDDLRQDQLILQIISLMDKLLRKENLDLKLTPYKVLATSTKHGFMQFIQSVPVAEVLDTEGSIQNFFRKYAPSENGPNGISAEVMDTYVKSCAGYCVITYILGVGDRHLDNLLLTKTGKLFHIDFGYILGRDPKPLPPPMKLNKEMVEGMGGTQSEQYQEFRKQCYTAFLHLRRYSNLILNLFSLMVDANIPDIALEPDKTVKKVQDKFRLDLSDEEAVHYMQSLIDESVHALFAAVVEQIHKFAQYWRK

| Structure (SMILES) | IC50 |
| --- | --- |
| C[C@@H]1COCCN1c1cc(N2CCOCC2C(F)(F)F)[nH]c(=O)c1 (single isomer, unassigned) [Example 43_2] | 0.1 µM |
| COC(C)(C)C1CCCN1c1cc(N2CCOC[C@H]2C)cc(=O)[nH]1 (single isomer, unassigned) [Example 11_1] | 0.2 µM |
| Cc1ccc(C2CCCN2c2cc(N3CCOC[C@H]3C)cc(=O)[nH]2)o1 (mixture of isomers) [Example 22, (R) and (S) 6-[2-(5-methyl-2-furyl)pyrrolidin-1-yl]-4-[(3R)-3-methylmorpholin-4-yl]-1H-pyridin-2-one] | 0.06 µM |
| C[C@@H]1COCCN1c1cc(N2CCCCC2C(F)(F)F)[nH]c(=O)c1 (single isomer, unassigned) [Example 25_2] | 0.08 µM |
| C[C@@H]1COCCN1c1cc(N2CC[S+]([O-])CC2)[nH]c(=O)c1 [Example 27, 4-[(3R)-3-methylmorpholin-4-yl]-6-(1-oxo-1,4-thiazinan-4-yl)-1H-pyridin-2-one] | 0.4 µM |
| Cn1c(N2CCCC2c2ccccc2)cc(N2CCOCC2)cc1=O (stereo not drawn) [Example 2, 1-methyl-4-morpholino-6-(2-phenylpyrrolidin-1-yl)pyridin-2-one] | 0.1 µM |
| C[C@@H]1COCCN1c1cc(N2CCOCC2c2ccccc2)[nH]c(=O)c1 (single isomer, unassigned) [Example 26_2] | 0.3 µM |
| C[C@@H]1COCCN1c1cc(N2CCCC2c2ccccn2)[nH]c(=O)c1 (single isomer, unassigned) [Example 38_2] | 0.2 µM |
| C[C@@H]1COCCN1c1cc(N2CCN(C(=O)c3cncc(F)c3)CC2C(F)(F)F)[nH]c(=O)c1 (stereo partly drawn) [Example 46, 6-[4-(5-fluoropyridine-3-carbonyl)-2-(trifluoromethyl)piperazin-1-yl]-4-[(3R)-3-methylmorpholin-4-yl]-1H-pyridin-2-one] | 0.005 µM |
| Cc1cc(C2CCCN2c2cc(N3CCOC[C@H]3C)cc(=O)[nH]2)nn1C (single isomer, unassigned) [Example 20_1] | 0.06 µM |
| C[C@@H]1COCCN1c1cc(N2CCN(C(=O)C3CCCO3)CC2C(F)(F)F)[nH]c(=O)c1 (single isomer, unassigned) [Example 48_2] | 0.02 µM |
| Cc1cc(C2CCCN2c2cc(N3CCOC[C@H]3C)cc(=O)[nH]2)no1 (mixture of isomers) [Example 40, (R) and (S) 6-[2-(5-methylisoxazol-3-yl)pyrrolidin-1-yl]-4-[(3R)-3-methylmorpholin-4-yl]-1H-pyridin-2-one] | 0.1 µM |
| C[C@@H]1COCCN1c1cc(N2CCCC2c2cnn(C)c2)[nH]c(=O)c1 (mixture of isomers) [Example 19, (R) and (S) 4-[(3R)-3-methylmorpholin-4-yl]-6-[2-(1-methylpyrazol-4-yl)pyrrolidin-1-yl]-1H-pyridin-2-one] | 0.1 µM |
| C[C@@H]1COCCN1c1cc(N2CCCC2C2CCCCC2)[nH]c(=O)c1 (single isomer, unassigned) [Example 12_2] | 0.2 µM |
| CC1COCCN1c1cc(N2CCOC[C@H]2C)cc(=O)[nH]1 (single isomer, unassigned) [Example 24_2] | 0.2 µM |
| C[C@@H]1COCCN1c1cc(N2CCC[C@H]2C(F)(F)F)[nH]c(=O)c1 [Example 34, 4-[(3R)-3-methylmorpholin-4-yl]-6-[(2S)-2-(trifluoromethyl)pyrrolidin-1-yl]-1H-pyridin-2-one] | 0.1 µM |
| Cc1cc(C2CCCN2c2cc(N3CCOC[C@H]3C)cc(=O)[nH]2)no1 (single isomer, unassigned) [Example 40_1] | 0.1 µM |
| C[C@@H]1COCCN1c1cc(N2CCCC2C(=O)N(C)C)[nH]c(=O)c1 (stereo partly drawn) [Example 10, N,N-dimethyl-1-[4-[(3R)-3-methylmorpholin-4-yl]-6-oxo-1H-pyridin-2-yl]pyrrolidine-2-carboxamide] | 0.4 µM |
| COC(C)(C)C1CCCN1c1cc(N2CCOC[C@H]2C)cc(=O)[nH]1 (mixture of isomers) [Example 11, (R) and (S) 6-[2-(1-methoxy-1-methyl-ethyl)pyrrolidin-1-yl]-4-[(3R)-3-methylmorpholin-4-yl]-1H-pyridin-2-one] | 0.09 µM |
| CC1COCCN1c1cc(N2CCOC[C@H]2C)cc(=O)[nH]1 (mixture of isomers) [Example 24, (R) and (S) 4-[(3R)-3-methylmorpholin-4-yl]-6-(3-methylmorpholin-4-yl)-1H-pyridin-2-one] | 0.03 µM |
| Cc1ccc(C2CCCN2c2cc(N3CCOC[C@H]3C)cc(=O)[nH]2)o1 (single isomer, unassigned) [Example 22_2] | 0.1 µM |

| Structure (SMILES) | IC50 |
| --- | --- |
| C[C@@H]1COCCN1c1cc(N2CCN(C)CC2c2ccccc2)[nH]c(=O)c1 (stereo partly drawn) [Example 31, 4-[(3R)-3-methylmorpholin-4-yl]-6-(4-methyl-2-phenyl-piperazin-1-yl)-1H-pyridin-2-one] | 0.3 µM |
| C[C@@H]1COCCN1c1cc(N2CCCC2C2CCCCC2)[nH]c(=O)c1 (mixture of isomers) [Example 12, (R) and (S) 6-(2-cyclohexylpyrrolidin-1-yl)-4-[(3R)-3-methylmorpholin-4-yl]-1H-pyridin-2-one] | 0.09 µM |
| C[C@@H]1COCCN1c1cc(N2CCN(C(=O)C3CCCO3)CC2C(F)(F)F)[nH]c(=O)c1 (single isomer, unassigned) [Example 48_1] | 0.01 µM |
| C[C@@H]1COCCN1c1cc(N2CCCC2c2cccc(F)c2)[nH]c(=O)c1 (single isomer, unassigned) [Example 13_1] | 0.06 µM |
| C[C@@H]1COCCN1c1cc(N2CCCC2c2ccccn2)[nH]c(=O)c1 (single isomer, unassigned) [Example 38_1] | 0.05 µM |
| C[C@@H]1COCCN1c1cc(N2CCCC2c2ccccc2)[nH]c(=O)c1 (mixture of isomers) [Example 18, (R) and (S) 4-[(3R)-3-methylmorpholin-4-yl]-6-(2-phenylpyrrolidin-1-yl)-1H-pyridin-2-one] | 0.06 µM |
| C[C@@H]1COCCN1c1cc(N2CCS(=O)(=O)CC2)[nH]c(=O)c1 [Example 28, 6-(1,1-dioxo-1,4-thiazinan-4-yl)-4-[(3R)-3-methylmorpholin-4-yl]-1H-pyridin-2-one] | 0.4 µM |
| C[C@@H]1COCCN1c1cc(N2CCOCC2c2ccccc2)[nH]c(=O)c1 (mixture of isomers) [Example 26, (R) and (S) 4-[(3R)-3-methylmorpholin-4-yl]-6-(3-phenylmorpholin-4-yl)-1H-pyridin-2-one] | 0.06 µM |
| C[C@@H]1COCCN1c1cc(N2CCCC2c2cnn(C)c2)[nH]c(=O)c1 (single isomer, unassigned) [Example 19_1] | 0.3 µM |
| Cc1cc(C2CCCN2c2cc(N3CCOC[C@H]3C)cc(=O)[nH]2)nn1C (mixture of isomers) [Example 20, (R) and (S) 6-[2-(1,5-dimethylpyrazol-3-yl)pyrrolidin-1-yl]-4-[(3R)-3-methylmorpholin-4-yl]-1H-pyridin-2-one] | 0.2 µM |
| CCn1ccc(C2CCCN2c2cc(N3CCOC[C@H]3C)cc(=O)[nH]2)n1 (mixture of isomers) [Example 21, (R) and (S) 6-[2-(1-ethylpyrazol-3-yl)pyrrolidin-1-yl]-4-[(3R)-3-methylmorpholin-4-yl]-1H-pyridin-2-one] | 0.06 µM |
| CCn1ccc(C2CCCN2c2cc(N3CCOC[C@H]3C)cc(=O)[nH]2)n1 (single isomer, unassigned) [Example 21_1] | 0.1 µM |
| C[C@@H]1COCCN1c1cc(N2CCCC2c2cccc(N(C)C)c2)[nH]c(=O)c1 (mixture of isomers) [Example 23, (R) and (S) 6-[2-[3-(dimethylamino)phenyl]pyrrolidin-1-yl]-4-[(3R)-3-methylmorpholin-4-yl]-1H-pyridin-2-one] | 0.03 µM |
| C[C@@H]1COCCN1c1cc(N2CCCC2c2ccccn2)[nH]c(=O)c1 (mixture of isomers) [Example 38, (R) and (S) 4-[(3R)-3-methylmorpholin-4-yl]-6-[2-(2-pyridyl)pyrrolidin-1-yl]-1H-pyridin-2-one] | 0.05 µM |
| COc1cccc(C2CCCN2c2cc(N3CCOC[C@H]3C)cc(=O)[nH]2)c1 (single isomer, unassigned) [Example 17_1] | 0.02 µM |
| C[C@@H]1COCCN1c1cc(N2CCCC2c2nccs2)[nH]c(=O)c1 (mixture of isomers) [Example 39, (R) and (S) 4-[(3R)-3-methylmorpholin-4-yl]-6-(2-thiazol-2-ylpyrrolidin-1-yl)-1H-pyridin-2-one] | 0.05 µM |
| C[C@@H]1COCCN1c1cc(N2CCCC2c2cccc(OC(F)(F)F)c2)[nH]c(=O)c1 (mixture of isomers) [Example 15, (R) and (S) 4-[(3R)-3-methylmorpholin-4-yl]-6-[2-[3-(trifluoromethoxy)phenyl]pyrrolidin-1-yl]-1H-pyridin-2-one] | 0.06 µM |
| C[C@@H]1COCCN1c1cc(N2CCCC2c2cccc(OC(F)(F)F)c2)[nH]c(=O)c1 (single isomer, unassigned) [Example 15_1] | 0.2 µM |
| C[C@@H]1COCCN1c1cc(N2CCCC2c2cccc(C(F)(F)F)c2)[nH]c(=O)c1 (single isomer, unassigned) [Example 16_2] | 0.08 µM |
| COc1cccc(C2CCCCN2c2cc(N3CCOC[C@H]3C)cc(=O)[nH]2)c1 (single isomer, unassigned) [Example 44_2] | 0.006 µM |
| C[C@@H]1COCCN1c1cc(N2CCN(C)CC2C(F)(F)F)[nH]c(=O)c1 (stereo partly drawn) [Example 49, 4-[(3R)-3-methylmorpholin-4-yl]-6-[4-methyl-2-(trifluoromethyl)piperazin-1-yl]-1H-pyridin-2-one] | 0.03 µM |
